# Measured values as given in patent US20250270213A1, “PI3Ka INHIBITORS” (Synnovation Therapeutics, Inc., priority 2022, published 2025).
# Tested on: T47D (PIK3CA H1047R) cells
# Test: pS473 AKT assay with 2.5% FBS, T47D cells
# Type: cell-based
# Conditions: Homo sapiens, pSer473 AKT, DMEM with 2.5% FBS, 2 h treatment, read-out: T47D_IC50
# In short: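 T47D (PIK3CA H1047R) cells were switched to DMEM with 2.5% FBS and exposed to compounds for 2 h. After paraformaldehyde fixation, pSer473 AKT was detected by in-cell ELISA (rabbit primary, HRP anti-rabbit secondary, chemiluminescence); IC50 values were fitted from the concentration series.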
row,SMILES,IC50 [µM]
1,"Cc1cc(C(C)Nc2ccc(Cl)nc2-c2ccc(C#N)cc2F)c2c(c1)c(=O)n(C)c1c(C(=O)N(C)C)ncn21 (stereo not drawn) [Compound 125, 9-(1-((6-chloro-2-(4-cyano-2-fluorophenyl)pyridin-3-yl)amino)ethyl)-N,N,4,7-tetramethyl-5-oxo-4,5-dihydroimidazo[1,5-a]quinazoline-3-carboxamide]",< 1
2,"Cc1cc(C(C)Nc2ccc(Cl)nc2-c2ccc(C#N)cc2)c2c(c1)c(=O)n(C)c1c(C(=O)N(C)C)ncn21 (stereo not drawn) [Compound 126, 9-(1-((6-chloro-2-(4-cyanophenyl)pyridin-3-yl)amino)ethyl)-N,N,4,7-tetramethyl-5-oxo-4,5-dihydroimidazo[1,5-a]quinazoline-3-carboxamide]",< 1
3,"Cc1cc(C(C)Nc2ccc(Cl)nc2N2CCOCC2)c2c(c1)c(=O)n(C)c1c(C(=O)N(C)C)ncn21 (stereo not drawn) [Compound 127, 9-(1-((6-chloro-2-morpholinopyridin-3-yl)amino)ethyl)-N,N,4,7-tetramethyl-5-oxo-4,5-dihydroimidazo[1,5-a]quinazoline-3-carboxamide]",< 1
4,"Cc1cc(C(C)Nc2ccc(F)cc2-c2cnn(C)c2)c2c(c1)c(=O)n(C)c1c(C(=O)N(C)C)ncn21 (stereo not drawn) [Compound 128, 9-(1-((4-fluoro-2-(1-methyl-1H-pyrazol-4-yl)phenyl)amino)ethyl)-N,N,4,7-tetramethyl-5-oxo-4,5-dihydroimidazo[1,5-a]quinazoline-3-carboxamide]",< 1
5,"Cc1cc(C(C)Nc2ccc(Cl)nc2-c2cnn(C)c2C)c2c(c1)c(=O)n(C)c1c(C(=O)N(C)C)ncn21 (stereo not drawn) [Compound 129, 9-(1-((6-chloro-2-(1,5-dimethyl-1H-pyrazol-4-yl)pyridin-3-yl)amino)ethyl)-N,N,4,7-tetramethyl-5-oxo-4,5-dihydroimidazo[1,5-a]quinazoline-3-carboxamide]",< 1
6,"Cc1cc(C(C)Nc2ccc(Cl)nc2-c2cn(C)nc2C)c2c(c1)c(=O)n(C)c1c(C(=O)N(C)C)ncn21 (stereo not drawn) [Compound 130, 9-(1-((6-chloro-2-(1,3-dimethyl-1H-pyrazol-4-yl)pyridin-3-yl)amino)ethyl)-N,N,4,7-tetramethyl-5-oxo-4,5-dihydroimidazo[1,5-a]quinazoline-3-carboxamide]",< 1
7,"Cc1cc(C(C)Nc2ccc(Cl)nc2-c2ncn(C)n2)c2c(c1)c(=O)n(C)c1c(C3CCN(C)CC3)ncn21 (stereo not drawn) [Compound 131, 9-(1-((6-Chloro-2-(1-methyl-1H-1,2,4-triazol-3-yl)pyridin-3-yl)amino)ethyl)-4,7-dimethyl-3-(1-methylpiperidin-4-yl) imidazo[1,5-a]quinazolin-5(4H)-one]",< 1
8,"CC(=O)N1CCC(c2ncn3c4c(C(C)Nc5ccc(Cl)nc5-c5ncn(C)n5)cc(C)cc4c(=O)n(C)c23)CC1 (stereo not drawn) [Compound 132, 3-(1-Acetylpiperidin-4-yl)-9-(1-((6-chloro-2-(1-methyl-1H-1,2,4-triazol-3-yl)pyridin-3-yl)amino)ethyl)-4,7-dimethylimidazo[1,5-a]quinazolin-5(4H)-one]",< 1
9,"CCOC(=O)N1CCC(c2ncn3c4c(C(C)Nc5ccc(Cl)nc5-c5ncn(C)n5)cc(C)cc4c(=O)n(C)c23)CC1 (stereo not drawn) [Compound 133, ethyl 4-(9-(1-((6-chloro-2-(1-methyl-1H-1,2,4-triazol-3-yl)pyridin-3-yl)amino)ethyl)-4,7-dimethyl-5-oxo-4,5-dihydroimidazo[1,5-a]quinazolin-3-yl)piperidine-1-carboxylate]",< 1
10,"Cc1cc(C(C)Nc2ccc(Cl)nc2-c2cnn(C)c2)c2c(c1)c(=O)n(C)c1c(C3CCN(C)CC3)ncn21 (stereo not drawn) [Compound 134, 9-(1-((6-Chloro-2-(1-methyl-1H-pyrazol-4-yl)pyridin-3-yl)amino)ethyl)-4,7-dimethyl-3-(1-methylpiperidin-4-yl) imidazo[1,5-a]quinazolin-5(4H)-one]",< 1
11,"Cc1cc(C(C)Nc2ccc(Cl)nc2-c2cnn(C)c2)c2c(c1)c(=O)n(C)c1c2cnn1C1CCN(C)C1 (stereo not drawn) [Compound 135, 9-(1-((6-Chloro-2-(1-methyl-1H-pyrazol-4-yl)pyridin-3-yl)amino)ethyl)-4,7-dimethyl-3-(1-methylpyrrolidin-3-yl)-3,4-dihydro-5H-pyrazolo[3,4-c]isoquinolin-5-one]",< 1
12,"Cc1cc(C(C)Nc2ccc(Cl)nc2-c2ncn(C)n2)c2c(c1)c(=O)n(C)c1c2cnn1C1CCN(C)C1 (stereo not drawn) [Compound 136, 9-(1-((6-chloro-2-(1-methyl-1H-1,2,4-triazol-3-yl)pyridin-3-yl)amino)ethyl)-4,7-dimethyl-3-(1-methylpyrrolidin-3-yl)-3,4-dihydro-5H-pyrazolo[3,4-c]isoquinolin-5-one]",< 1
13,"CCN1CCC(n2ncc3c4c(C(C)Nc5ccc(Cl)nc5-c5ncn(C)n5)cc(C)cc4c(=O)n(C)c32)C1 (stereo not drawn) [Compound 137, 9-(1-((6-chloro-2-(1-methyl-1H-1,2,4-triazol-3-yl)pyridin-3-yl)amino)ethyl)-3-(1-ethylpyrrolidin-3-yl)-4,7-dimethyl-3,4-dihydro-5H-pyrazolo[3,4-c]isoquinolin-5-one]",< 1
14,"Cc1cc(C(C)Nc2ccc(Cl)nc2-c2ncn(C)n2)c2c(c1)c(=O)n(C)c1c2cnn1C1CCN(CCO)C1 (stereo not drawn) [Compound 138, 9-(1-((6-chloro-2-(1-methyl-1H-1,2,4-triazol-3-yl)pyridin-3-yl)amino)ethyl)-3-(1-(2-hydroxyethyl)pyrrolidin-3-yl)-4,7-dimethyl-3,4-dihydro-5H-pyrazolo[3,4-c]isoquinolin-5-one]",< 1
15,"[2H]C([2H])([2H])n1c(=O)c2cc(C)cc(C(C)Nc3ccc(Cl)nc3-c3nnn(C)n3)c2c2cnn(C3CCN(C)C3)c21 (stereo not drawn) [Compound 139, 9-(1-((6-chloro-2-(2-methyl-2H-tetrazol-5-yl)pyridin-3-yl)amino)ethyl)-7-methyl-4-(methyl-d3)-3-(1-methylpyrrolidin-3-yl)-3,4-dihydro-5H-pyrazolo[3,4-c]isoquinolin-5-one]",< 1
16,"[2H]C([2H])([2H])n1c(=O)c2cc(C)cc(C(C)Nc3ccc(Cl)nc3-c3cnn(C)c3)c2c2cnn(C3CCN(CCO)C3)c21 (stereo not drawn) [Compound 140, 9-(1-((6-chloro-2-(1-methyl-1H-pyrazol-4-yl)pyridin-3-yl)amino)ethyl)-3-(1-(2-hydroxyethyl)pyrrolidin-3-yl)-7-methyl-4-(methyl-d3)-3,4-dihydro-5H-pyrazolo[3,4-c]isoquinolin-5-one]",< 1
17,"Cc1cc(C(C)Nc2ccc(Cl)nc2-c2ccncc2F)c2c(c1)c(=O)n(C)c1c2cnn1C1CCN(C(C)C)C1 (stereo not drawn) [Compound 141, 9-(1-((6-chloro-3′-fluoro-[2,4′-bipyridin]-3-yl)amino)ethyl)-3-(1-isopropylpyrrolidin-3-yl)-4,7-dimethyl-3,4-dihydro-5H-pyrazolo[3,4-c]isoquinolin-5-one]",< 1
18,"Cc1cc(C(C)Nc2ccc(Cl)nc2-c2cnn(C)c2)c2c(c1)c(=O)n(C)c1c2cnn1C1CCN(CC(F)F)C1 (stereo not drawn) [Compound 142, 9-(1-((6-Chloro-2-(1-methyl-1H-pyrazol-4-yl)pyridin-3-yl)amino)ethyl)-3-(1-(2,2-difluoroethyl)pyrrolidin-3-yl)-4,7-dimethyl-3,4-dihydro-5H-pyrazolo[3,4-c]isoquinolin-5-one]",< 1
19,"[2H]C([2H])([2H])n1c(=O)c2cc(C)cc(C(C)Nc3ccc(Cl)nc3-c3cnn(C)c3)c2c2cnn(C3CCN(CC(F)F)C3)c21 (stereo not drawn) [Compound 143, 9-(1-((6-chloro-2-(1-methyl-1H-pyrazol-4-yl)pyridin-3-yl)amino)ethyl)-3-(1-(2,2-difluoroethyl)pyrrolidin-3-yl)-7-methyl-4-(methyl-d3)-3,4-dihydro-5H-pyrazolo[3,4-c]isoquinolin-5-one]",< 1
20,"[2H]C([2H])([2H])n1c(=O)c2cc(C)cc(C(C)Nc3ccc(Cl)nc3-c3cnn(C)c3)c2c2cnn(C3CCN(CC#N)C3)c21 (stereo not drawn) [Compound 144, 2-(3-(9-(1-((6-chloro-2-(1-methyl-1H-pyrazol-4-yl)pyridin-3-yl)amino)ethyl)-7-methyl-4-(methyl-d3)-5-oxo-4,5-dihydro-3H-pyrazolo[3,4-c]isoquinolin-3-yl)pyrrolidin-1-yl)acetonitrile]",< 1
21,"CCn1c(=O)c2cc(C)cc(C(C)Nc3ccc(Cl)nc3-c3ncn(C)n3)c2c2cnn(C3CCN(CCO)C3)c21 (stereo not drawn) [Compound 145, 9-(1-((6-Chloro-2-(1-methyl-1H-1,2,4-triazol-3-yl)pyridin-3-yl)amino)ethyl)-4-ethyl-3-(1-(2-hydroxyethyl)pyrrolidin-3-yl)-7-methyl-3,4-dihydro-5H-pyrazolo[3,4-c]isoquinolin-5-one]",< 1
22,"CCn1c(=O)c2cc(C)cc(C(C)Nc3ccc(Cl)nc3-c3ncn(C)n3)c2c2cnn(C3CCN(CC(C)(C)O)C3)c21 (stereo not drawn) [Compound 146, 9-(1-((6-chloro-2-(1-methyl-1H-1,2,4-triazol-3-yl)pyridin-3-yl)amino)ethyl)-4-ethyl-3-(1-(2-hydroxy-2-methylpropyl)pyrrolidin-3-yl)-7-methyl-3,4-dihydro-5H-pyrazolo[3,4-c]isoquinolin-5-one]",< 1
23,"CCn1c(=O)c2cc(C)cc(C(C)Nc3ccc(Cl)nc3-c3ncn(C)n3)c2c2cnn(C3CCN(C(C)C)C3)c21 (stereo not drawn) [Compound 147, 9-(1-((6-chloro-2-(1-methyl-1H-1,2,4-triazol-3-yl)pyridin-3-yl)amino)ethyl)-4-ethyl-3-(1-isopropylpyrrolidin-3-yl)-7-methyl-3,4-dihydro-5H-pyrazolo[3,4-c]isoquinolin-5-one]",< 1
24,"CCn1c(=O)c2cc(C)cc(C(C)Nc3ccc(Cl)nc3-c3ncn(C)n3)c2c2cnn(C3CCN(S(C)(=O)=O)C3)c21 (stereo not drawn) [Compound 148, 9-(1-((6-Chloro-2-(1-methyl-1H-1,2,4-triazol-3-yl)pyridin-3-yl)amino)ethyl)-4-ethyl-7-methyl-3-(1-(methylsulfonyl)pyrrolidin-3-yl)-3,4-dihydro-5H-pyrazolo[3,4-c]isoquinolin-5-one]",< 1
